From patent publication US10259823B2, “GLP-1 receptor modulators” (Celgene International II SÀRL, priority 2013, dated 2019)
pEC50: −log10 of the molar value.

Biological target: T1, GLP-1R (Homo sapiens, UniProt P43220)
T1 construct: host or cells: CRE-bla CHO-K1
Assay: EC20 GLP-1(9-36) PAM cAMP assay: dose response of compound in the presence of fixed concentration of GLP-1(9-36)
Format: cell-based
Conditions: GLP-1R CRE-bla CHO-K1 cells, compound dose response with fixed GLP-1(9-36), 30 min at 37° C.
Protocol: EC20 GLP-1(9-36) PAM cAMP assay: dose response of compound in the presence of fixed concentration of GLP-1 (9-36).
GLP-1R CRE-bla CHO-K1 cells cultured in growth medium (DMEM-High glucose, 10% dialyzed FBS, 0.1 mM NEAA, 25 mM Hepes, 100 U/mL penicillin/100 μg/mL streptomycin, 5 μg/mL Blasticidin, 600 μg/mL Hygromycin) were trypsinized and plated in suspension into 384 well white flat bottom plates at 5000 cells/well in 12 μL assay buffer (Hanks Balanced Salt solution, 10 mM hepes, 0.1% BSA, pH 7.4). A 5× compound dose response curve (12-point) was generated in assay buffer containing 1.5 mM IBMX, 4% DMSO. GLP-1(9-36) was diluted to 4.2 μM in assay buffer containing 1.5 mM IMBX and 4% DMSO. The 5× compound dose response was added (3 μL), followed by 0.5 μL of GLP-1(9-36) and cells were incubated for 30 min at 37° C. Direct detection of cAMP was carried out using DiscoveRx HitHunter cAMP kit according to manufacturer's instructions and luminescence was read using a SpectraMax M5 plate reader. Luminescence was converted to total cAMP using a cAMP standard curve and data was analyzed by non-linear regression to determine the EC50 and Emax.
GLP-1(7-36): […]-NH2 (SEQ ID NO: GLP-1(9-36): […]-NH2(SEQ ID NO: 3) GLP-1(7-36) was purchased from GenScript. GLP-1(9-36) was purchased from Biopeptide Co., Inc.

T1 sequence (P43220 24-463): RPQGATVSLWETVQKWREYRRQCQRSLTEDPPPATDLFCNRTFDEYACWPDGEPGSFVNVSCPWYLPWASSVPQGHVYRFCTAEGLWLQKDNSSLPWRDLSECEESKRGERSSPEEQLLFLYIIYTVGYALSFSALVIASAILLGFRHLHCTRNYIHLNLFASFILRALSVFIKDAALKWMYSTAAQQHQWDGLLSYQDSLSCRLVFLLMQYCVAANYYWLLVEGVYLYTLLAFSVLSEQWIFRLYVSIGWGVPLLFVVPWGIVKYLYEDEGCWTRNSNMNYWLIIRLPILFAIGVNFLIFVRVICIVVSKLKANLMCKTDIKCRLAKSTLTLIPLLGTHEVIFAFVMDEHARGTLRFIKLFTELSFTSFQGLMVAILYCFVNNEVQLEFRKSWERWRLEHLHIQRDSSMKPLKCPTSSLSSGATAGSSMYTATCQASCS
T1 sequence (P01275 100-127 partner limits assumed): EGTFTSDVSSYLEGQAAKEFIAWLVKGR

| SMILES | pEC50 |
| --- | --- |
| CCCCCCCOCCc1ccc(-c2nc(-c3ccc(C(NC(=O)c4ccc(C(C)(C)C)cc4)C(=O)O)cc3)no2)cc1 (centres unmarked) [Compound 71] | 5.30 to 5.60 |
| CCCCCCCOc1ccc(-c2cnc(-c3ccc(C[C@H](NC(=O)c4ccc(C(C)(C)C)s4)C(=O)N[C@H]4CCC[C@H]4C(=O)O)cc3)nc2)cc1 [Compound 382] | 5.60 to 6.10 |
| CCCCCCCOc1ccc(-c2cnc(-c3ccc(C[C@H](NC(=O)c4ccc(C(C)(C)C)cc4)C(=O)NC[C@H]4CCNC4)cc3)nc2)cc1 [Compound 413] | 5.00 to 5.30 |
| CCCCCCCOc1ccc(-c2cnc(-c3ccc(C[C@H](NC(=O)c4ccc(C(C)(C)C)s4)C(=O)N[C@@H](CC(=O)NC4CC4)C(=O)O)cc3)nc2)cc1 [Compound 514] | > 6.10 |
| CCCCCCCOc1ccc(-c2cnc(-c3ccc(C[C@H](NC(=O)c4ccc(C(C)(C)C)cc4)C(=O)NC(CCS(C)(=O)=O)C(=O)O)cc3)nc2)cc1 (some centres unmarked) [Compound 570] | > 6.10 |
| CCCCCCCOc1ccc(-c2cnc(-c3ccc(C[C@H](NC(=O)c4ccc(C(C)(C)C)cc4)C(=O)N[C@@H](Cc4cn(C)cn4)C(=O)O)cc3)nc2)cc1 [Compound 576] | 5.60 to 6.10 |
| CCCCCCCOc1ccc(-c2cnc(-c3ccc(C[C@H](NC(=O)c4ccc(C(C)(C)C)s4)C(=O)NC(C(=O)O)c4ccc(C)cc4)cc3)nc2)cc1 (some centres unmarked) [Compound 617] | > 6.10 |
| CC(C)(C)c1ccc(C(=O)N[C@@H](Cc2ccc(-c3ncc(C4CCC(C(C)(C)C)CC4)cn3)cc2)C(=O)NCCC(=O)O)cc1 (some centres unmarked) [Compound 674] | 5.00 to 5.30 |
| CCCCCCCOC1CCN(c2cnc(-c3ccc(C[C@H](NC(=O)c4ccc(C(C)(C)C)cc4)C(=O)NCCC(=O)O)cc3)nc2)CC1 [Compound 693] | 5.00 to 5.30 |
| C/C=C/CCCOc1ccc(-c2cnc(-c3ccc(C[C@H](NC(=O)c4ccc(C(C)(C)C)cc4)C(=O)NCCC(=O)O)cc3)nc2)cc1 [Compound 714] | 5.30 to 5.60 |
| CCCC/C=C/COc1ccc(-c2cnc(-c3ccc(C[C@H](NC(=O)c4ccc(C(C)(C)C)cc4)C(=O)NCCC(=O)O)cc3)nc2)cc1 [Compound 715] | 5.30 to 5.60 |
| CCCCCCCOc1ccc(-c2cnc(-c3ccc(C[C@H](NC(=O)c4ccc(OC(C)C)cc4)C(=O)N[C@H](C)C(=O)O)cc3)nc2)cc1 [Compound 820] | 5.30 to 5.60 |
| CCCCCCCOc1ccc(-c2cnc(-c3ccc(C[C@H](NC(=O)c4ccc(OC(F)(F)F)cc4)C(=O)N[C@H](C)C(=O)O)cc3)nc2)cc1 [Compound 821] | 5.60 to 6.10 |
| CCCCCCCOc1ccc(-c2cnc(-c3ccc(C[C@H](NC(=O)[C@H]4CC[C@H](C(C)(C)C)CC4)C(=O)N4CC[C@H](C(=O)O)C4)cc3)nc2)cc1 [Compound 858] | 5.60 to 6.10 |
| CCCCCCCOc1ccc(-c2cnc(-c3ccc(C[C@H](NC(=O)c4oc(C(C)(C)C)cc4C)C(=O)N4CC[C@H](C(=O)O)C4)cc3)nc2)cc1 [Compound 866] | 5.30 to 5.60 |
| CC(C)(C)CCCOc1ccc(-c2cnc(-c3ccc(C[C@H](NC(=O)c4ccc(C(C)(C)C)s4)C(=O)NC(C(=O)O)C(O)c4ccccc4)cc3)nc2)cc1 (some centres unmarked) [Compound 944] | > 6.10 |
| C[C@@H](NC(=O)[C@H](Cc1ccc(-c2ncc(-c3ccc(OCc4ccccc4)cc3F)cn2)cc1)NC(=O)c1ccc(C(C)(C)C)s1)C(=O)O [Compound 1024] | 5.60 to 6.10 |
